Data from the NIST ThermoML archive (doi:10.1021/acs.jced.9b00752).
± gives the expanded uncertainty stated by the source.

Test: mn = molality of the nth substance listed, in mol/kg
Conditions: 100 kPa, Liquid, Vibrating tube method

N[C@@H](Cc1c[nH]cn1)C(=O)O [L-histidine] + O
mass density (278.65 K, m1 = 0.0078): 1000.43 ± 0.12 kg/m3
mass density (278.65 K, m1 = 0.0176): 1001 ± 0.12 kg/m3
mass density (278.65 K, m1 = 0.0269): 1001.6 ± 0.12 kg/m3
mass density (278.65 K, m1 = 0.048): 1002.82 ± 0.12 kg/m3
mass density (278.65 K, m1 = 0.0636): 1003.84 ± 0.12 kg/m3
mass density (278.65 K, m1 = 0.0856): 1005.07 ± 0.12 kg/m3
mass density (278.65 K, m1 = 0.0982): 1005.82 ± 0.12 kg/m3
mass density (278.65 K, m1 = 0.115): 1006.7 ± 0.12 kg/m3
mass density (278.65 K, m1 = 0.1268): 1007.49 ± 0.12 kg/m3
mass density (278.65 K, m1 = 0.138): 1008.16 ± 0.12 kg/m3
mass density (278.65 K, m1 = 0.1586): 1009.47 ± 0.12 kg/m3
mass density (279.15 K, m1 = 0.0078): 1000.42 ± 0.12 kg/m3
mass density (279.15 K, m1 = 0.0176): 1000.98 ± 0.12 kg/m3
mass density (279.15 K, m1 = 0.0269): 1001.58 ± 0.12 kg/m3
mass density (279.15 K, m1 = 0.048): 1002.8 ± 0.12 kg/m3
mass density (279.15 K, m1 = 0.0636): 1003.82 ± 0.12 kg/m3
mass density (279.15 K, m1 = 0.0856): 1005.05 ± 0.12 kg/m3
mass density (279.15 K, m1 = 0.0982): 1005.8 ± 0.12 kg/m3
mass density (279.15 K, m1 = 0.115): 1006.68 ± 0.12 kg/m3
mass density (279.15 K, m1 = 0.1268): 1007.46 ± 0.12 kg/m3
mass density (279.15 K, m1 = 0.138): 1008.13 ± 0.12 kg/m3
mass density (279.15 K, m1 = 0.1586): 1009.44 ± 0.12 kg/m3
mass density (279.65 K, m1 = 0.0078): 1000.4 ± 0.12 kg/m3
mass density (279.65 K, m1 = 0.0176): 1000.97 ± 0.12 kg/m3
mass density (279.65 K, m1 = 0.0269): 1001.56 ± 0.12 kg/m3
mass density (279.65 K, m1 = 0.048): 1002.78 ± 0.12 kg/m3
mass density (279.65 K, m1 = 0.0636): 1003.79 ± 0.12 kg/m3
mass density (279.65 K, m1 = 0.0856): 1005.02 ± 0.12 kg/m3
mass density (279.65 K, m1 = 0.0982): 1005.77 ± 0.12 kg/m3
mass density (279.65 K, m1 = 0.115): 1006.65 ± 0.12 kg/m3
mass density (279.65 K, m1 = 0.1268): 1007.43 ± 0.12 kg/m3
mass density (279.65 K, m1 = 0.138): 1008.1 ± 0.12 kg/m3
mass density (279.65 K, m1 = 0.1586): 1009.41 ± 0.12 kg/m3
mass density (280.15 K, m1 = 0.0078): 1000.38 ± 0.12 kg/m3
mass density (280.15 K, m1 = 0.0176): 1000.94 ± 0.12 kg/m3
mass density (280.15 K, m1 = 0.0269): 1001.53 ± 0.12 kg/m3
mass density (280.15 K, m1 = 0.048): 1002.75 ± 0.12 kg/m3
mass density (280.15 K, m1 = 0.0636): 1003.76 ± 0.12 kg/m3
mass density (280.15 K, m1 = 0.0856): 1004.99 ± 0.12 kg/m3
mass density (280.15 K, m1 = 0.0982): 1005.74 ± 0.12 kg/m3
mass density (280.15 K, m1 = 0.115): 1006.62 ± 0.12 kg/m3
mass density (280.15 K, m1 = 0.1268): 1007.39 ± 0.12 kg/m3
mass density (280.15 K, m1 = 0.138): 1008.06 ± 0.12 kg/m3
mass density (280.15 K, m1 = 0.1586): 1009.37 ± 0.12 kg/m3
mass density (280.65 K, m1 = 0.0078): 1000.36 ± 0.12 kg/m3
mass density (280.65 K, m1 = 0.0176): 1000.92 ± 0.12 kg/m3
mass density (280.65 K, m1 = 0.0269): 1001.51 ± 0.12 kg/m3
mass density (280.65 K, m1 = 0.048): 1002.73 ± 0.12 kg/m3
mass density (280.65 K, m1 = 0.0636): 1003.73 ± 0.12 kg/m3
mass density (280.65 K, m1 = 0.0856): 1004.96 ± 0.12 kg/m3
mass density (280.65 K, m1 = 0.0982): 1005.71 ± 0.12 kg/m3
mass density (280.65 K, m1 = 0.115): 1006.58 ± 0.12 kg/m3
mass density (280.65 K, m1 = 0.1268): 1007.36 ± 0.12 kg/m3
mass density (280.65 K, m1 = 0.138): 1008.03 ± 0.12 kg/m3
mass density (280.65 K, m1 = 0.1586): 1009.33 ± 0.12 kg/m3
mass density (281.15 K, m1 = 0.0078): 1000.33 ± 0.12 kg/m3
mass density (281.15 K, m1 = 0.0176): 1000.89 ± 0.12 kg/m3
mass density (281.15 K, m1 = 0.0269): 1001.48 ± 0.12 kg/m3
mass density (281.15 K, m1 = 0.048): 1002.69 ± 0.12 kg/m3
mass density (281.15 K, m1 = 0.0636): 1003.7 ± 0.12 kg/m3
mass density (281.15 K, m1 = 0.0856): 1004.92 ± 0.12 kg/m3
mass density (281.15 K, m1 = 0.0982): 1005.67 ± 0.12 kg/m3
mass density (281.15 K, m1 = 0.115): 1006.54 ± 0.12 kg/m3
mass density (281.15 K, m1 = 0.1268): 1007.32 ± 0.12 kg/m3
mass density (281.15 K, m1 = 0.138): 1007.99 ± 0.12 kg/m3
mass density (281.15 K, m1 = 0.1586): 1009.28 ± 0.12 kg/m3
mass density (281.65 K, m1 = 0.0078): 1000.29 ± 0.12 kg/m3
mass density (281.65 K, m1 = 0.0176): 1000.85 ± 0.12 kg/m3
mass density (281.65 K, m1 = 0.0269): 1001.44 ± 0.12 kg/m3
mass density (281.65 K, m1 = 0.048): 1002.65 ± 0.12 kg/m3
mass density (281.65 K, m1 = 0.0636): 1003.66 ± 0.12 kg/m3
mass density (281.65 K, m1 = 0.0856): 1004.88 ± 0.12 kg/m3
mass density (281.65 K, m1 = 0.0982): 1005.63 ± 0.12 kg/m3
mass density (281.65 K, m1 = 0.115): 1006.5 ± 0.12 kg/m3
mass density (281.65 K, m1 = 0.1268): 1007.27 ± 0.12 kg/m3
mass density (281.65 K, m1 = 0.138): 1007.94 ± 0.12 kg/m3
mass density (281.65 K, m1 = 0.1586): 1009.24 ± 0.12 kg/m3
mass density (282.15 K, m1 = 0.0078): 1000.26 ± 0.12 kg/m3
mass density (282.15 K, m1 = 0.0176): 1000.82 ± 0.12 kg/m3
mass density (282.15 K, m1 = 0.0269): 1001.41 ± 0.12 kg/m3
mass density (282.15 K, m1 = 0.048): 1002.62 ± 0.12 kg/m3
mass density (282.15 K, m1 = 0.0636): 1003.62 ± 0.12 kg/m3
mass density (282.15 K, m1 = 0.0856): 1004.84 ± 0.12 kg/m3
mass density (282.15 K, m1 = 0.0982): 1005.59 ± 0.12 kg/m3
mass density (282.15 K, m1 = 0.115): 1006.46 ± 0.12 kg/m3
mass density (282.15 K, m1 = 0.1268): 1007.23 ± 0.12 kg/m3
mass density (282.15 K, m1 = 0.138): 1007.89 ± 0.12 kg/m3
mass density (282.15 K, m1 = 0.1586): 1009.19 ± 0.12 kg/m3
mass density (282.65 K, m1 = 0.0078): 1000.22 ± 0.12 kg/m3
mass density (282.65 K, m1 = 0.0176): 1000.78 ± 0.12 kg/m3
mass density (282.65 K, m1 = 0.0269): 1001.36 ± 0.12 kg/m3
mass density (282.65 K, m1 = 0.048): 1002.57 ± 0.12 kg/m3
mass density (282.65 K, m1 = 0.0636): 1003.58 ± 0.12 kg/m3
mass density (282.65 K, m1 = 0.0856): 1004.79 ± 0.12 kg/m3
mass density (282.65 K, m1 = 0.0982): 1005.54 ± 0.12 kg/m3
mass density (282.65 K, m1 = 0.115): 1006.41 ± 0.12 kg/m3
mass density (282.65 K, m1 = 0.1268): 1007.18 ± 0.12 kg/m3
mass density (282.65 K, m1 = 0.138): 1007.84 ± 0.12 kg/m3
mass density (282.65 K, m1 = 0.1586): 1009.13 ± 0.12 kg/m3
mass density (283.15 K, m1 = 0.0078): 1000.18 ± 0.12 kg/m3
mass density (283.15 K, m1 = 0.0176): 1000.73 ± 0.12 kg/m3
mass density (283.15 K, m1 = 0.0269): 1001.32 ± 0.12 kg/m3
mass density (283.15 K, m1 = 0.048): 1002.53 ± 0.12 kg/m3
mass density (283.15 K, m1 = 0.0636): 1003.53 ± 0.12 kg/m3
mass density (283.15 K, m1 = 0.0856): 1004.74 ± 0.12 kg/m3
mass density (283.15 K, m1 = 0.0982): 1005.49 ± 0.12 kg/m3
mass density (283.15 K, m1 = 0.115): 1006.36 ± 0.12 kg/m3
mass density (283.15 K, m1 = 0.1268): 1007.13 ± 0.12 kg/m3
mass density (283.15 K, m1 = 0.138): 1007.79 ± 0.12 kg/m3
mass density (283.15 K, m1 = 0.1586): 1009.08 ± 0.12 kg/m3
